The text below walks through data of PubChem BioAssay (NCI).

Some test systems named below: CCRF-CEM leukemia; HOP-92 NSCLC; KM12 colon; MDA-MB-435; MOLT-4 leukemia; SK-MEL-2 melanoma; SK-OV-3 ovarian; SR leukemia; U251 CNS; UACC-62 melanoma.
Common to all, as to experiment: NCI tumour cell line growth inhibition, 48 h

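Protocol summary: plate cells (96-well), add compound at 5 concentrations, incubate 48 h, interpolate endpoints linearly. TGI is the concentration that stops growth completely.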

Consider `COC(OC)C1OCC(n2cc(F)c(=O)[nH]c2=O)C1O` (stereo not given), for which the TGI in the experiment on CCRF-CEM leukemia, in the experiment on HOP-92 NSCLC, in the experiment on KM12 colon, with MDA-MB-435, in the experiment on MOLT-4 leukemia and in the experiment on SK-MEL-2 melanoma was greater than 100 µM in each case. Moreover, the TGI in the experiment with SK-OV-3 ovarian, with SR leukemia, with U251 CNS and with UACC-62 melanoma was greater than 100 µM in each case.
In the case of `CSc1cc(-c2ccccn2)nc(-c2ccccn2)c1`, the TGI is greater than 100 µM with CCRF-CEM leukemia; 2.91 µM in the experiment on HOP-92 NSCLC; 14.4 µM in the experiment on KM12 colon; 12.9 µM in the experiment with MDA-MB-435; greater than 100 µM with MOLT-4 leukemia; 14.9 µM in the experiment with SK-MEL-2 melanoma. Besides, the TGI in the experiment on SK-OV-3 ovarian was 10.8 µM; with SR leukemia, greater than 100 µM; in the experiment with U251 CNS, 11.7 µM; in the experiment with UACC-62 melanoma, 1.23 µM.
`O=C1c2ccccc2C(=O)c2sc(Nc3ccccc3C(F)(F)F)nc21`: the TGI is greater than 100 µM with CCRF-CEM leukemia; 23.7 µM in the experiment on HOP-92 NSCLC; 27.4 µM in the experiment with KM12 colon; 16 µM in the experiment with MDA-MB-435; 85.1 µM in the experiment with MOLT-4 leukemia; 25.2 µM with SK-MEL-2 melanoma. Besides, the TGI in the experiment on SK-OV-3 ovarian is 30.8 µM; with SR leukemia it was greater than 100 µM; with U251 CNS it was 22.4 µM; with UACC-62 melanoma, 29.7 µM.
In the case of `CCCCCc1nnc(NS(=O)(=O)c2ccc(NC(=O)OCC(C)C)cc2)s1`, the TGI with CCRF-CEM leukemia was 77.1 µM; with HOP-92 NSCLC, 77.3 µM; in the experiment on KM12 colon it was greater than 100 µM; in the experiment on MDA-MB-435, greater than 100 µM; in the experiment on MOLT-4 leukemia, 54 µM; in the experiment on SK-MEL-2 melanoma, 53.5 µM. For the same molecule, the TGI is greater than 100 µM with SK-OV-3 ovarian, 36.9 µM in the experiment with SR leukemia, greater than 100 µM in the experiment on U251 CNS and greater than 100 µM with UACC-62 melanoma.
As for `C(/Cc1ccc2c(c1)OCO2)=N\NC1=NCCN1`, the TGI in the experiment on CCRF-CEM leukemia, with HOP-92 NSCLC, in the experiment with KM12 colon, in the experiment on MDA-MB-435, with MOLT-4 leukemia and in the experiment with SK-MEL-2 melanoma was greater than 100 µM each time. Moreover, the TGI with SK-OV-3 ovarian, in the experiment on SR leukemia, with U251 CNS and in the experiment with UACC-62 melanoma was greater than 100 µM each time.
Take `Cc1ccc(-n2cc(-c3ccc(Cl)cc3)c3c(N/N=C4\SCC(=O)N4C)ncnc32)cc1`: the TGI is greater than 100 µM in the experiment with CCRF-CEM leukemia; 8.24 µM in the experiment with HOP-92 NSCLC; greater than 100 µM in the experiment with KM12 colon; 40 µM in the experiment with MDA-MB-435; greater than 100 µM in the experiment on MOLT-4 leukemia; 6.18 µM with SK-MEL-2 melanoma. Moreover, the TGI in the experiment with SK-OV-3 ovarian was 13.8 µM; with SR leukemia, greater than 100 µM; in the experiment on U251 CNS, 36.5 µM; with UACC-62 melanoma it was 11.2 µM.
As for `c1ccc(CN[C@]23C4C5CC6C7C5C2C7[C@@](NCc2ccccc2)(C64)N3Cc2ccccc2)cc1` (stereo not given in full), the TGI in the experiment on CCRF-CEM leukemia, in the experiment on HOP-92 NSCLC, in the experiment with KM12 colon, with MDA-MB-435, with MOLT-4 leukemia and in the experiment on SK-MEL-2 melanoma was greater than 100 µM each time. Moreover, the TGI in the experiment with SK-OV-3 ovarian, in the experiment on SR leukemia, in the experiment with U251 CNS and in the experiment with UACC-62 melanoma was greater than 100 µM each time.
As to `CCCCCCNC(=O)CCC(NC(=O)c1ccc(N(C)Cc2cnc3nc(N)nc(N)c3n2)cc1)C(=O)NCCCCCC` (stereo not given), the TGI with CCRF-CEM leukemia, with HOP-92 NSCLC, in the experiment on KM12 colon, in the experiment with MDA-MB-435, in the experiment with MOLT-4 leukemia and in the experiment with SK-MEL-2 melanoma was greater than 100 µM throughout. For the same molecule, the TGI in the experiment with SK-OV-3 ovarian was 37.2 µM; in the experiment with SR leukemia it was greater than 100 µM; in the experiment with U251 CNS, greater than 100 µM; in the experiment with UACC-62 melanoma, greater than 100 µM.
As for `C[n+]1c(-c2ccc(/C=N/Nc3ccnc(N/N=C/c4ccc(-c5cn6ccsc6[n+]5C)cc4)n3)cc2)cn2ccsc21`, the TGI in the experiment with CCRF-CEM leukemia was 44.2 µM; in the experiment on HOP-92 NSCLC, greater than 100 µM; with KM12 colon, greater than 100 µM; in the experiment with MDA-MB-435 it was 40.1 µM; in the experiment with MOLT-4 leukemia, 64.9 µM; with SK-MEL-2 melanoma, 85.9 µM. Also, the TGI in the experiment with SK-OV-3 ovarian, with SR leukemia, with U251 CNS and in the experiment on UACC-62 melanoma was greater than 100 µM in each case.
In the case of `COC(=O)C1=C(OC(=O)/C=C/c2ccccc2)C(C(=O)OC)[C@@]2(O)[C@@H](C(=O)OC)[C@H](C)C[C@@H]1[C@@H]2C(=O)OC` (stereo not given in full), the TGI in the experiment with CCRF-CEM leukemia was greater than 100 µM; in the experiment with HOP-92 NSCLC it was 48 µM; in the experiment on KM12 colon it was greater than 100 µM; in the experiment on MDA-MB-435, greater than 100 µM; with MOLT-4 leukemia it was greater than 100 µM; in the experiment with SK-MEL-2 melanoma, 91.1 µM. The TGI was 70.2 µM in the experiment on SK-OV-3 ovarian, greater than 100 µM in the experiment on SR leukemia, 45.6 µM in the experiment on U251 CNS and 33.1 µM with UACC-62 melanoma.
As to `Cc1ccc(C(=O)N(Cc2ccccc2)Cc2ccccc2)cc1N=NN(C)C`, the TGI was greater than 100 µM in the experiment on CCRF-CEM leukemia; 70.1 µM in the experiment with HOP-92 NSCLC; greater than 86.5 µM in the experiment with KM12 colon; 54.8 µM with MDA-MB-435; greater than 100 µM with MOLT-4 leukemia; 9.79 µM in the experiment with SK-MEL-2 melanoma. The TGI in the experiment with SK-OV-3 ovarian was 99.2 µM; in the experiment with SR leukemia it was greater than 100 µM; in the experiment with U251 CNS, greater than 100 µM; in the experiment with UACC-62 melanoma, greater than 31.6 µM.
With `C=C1c2nc3ccccc3n2C=C(c2ccc(C)cc2)N1c1ccc(C)cc1`, the TGI with CCRF-CEM leukemia was greater than 100 µM; in the experiment on HOP-92 NSCLC, greater than 100 µM; in the experiment with KM12 colon, greater than 82.2 µM; in the experiment with MDA-MB-435, greater than 78.2 µM; in the experiment with MOLT-4 leukemia it was greater than 100 µM; in the experiment on SK-MEL-2 melanoma, greater than 100 µM. The TGI in the experiment on SK-OV-3 ovarian is greater than 100 µM; in the experiment with SR leukemia, greater than 74.3 µM; in the experiment with U251 CNS, greater than 100 µM; in the experiment with UACC-62 melanoma, greater than 100 µM.
On to `O=C(CCCCCC(=O)N1CC(CCl)c2ccc([N+](=O)[O-])cc21)N1CC(CCl)c2ccc([N+](=O)[O-])cc21` (stereo not given), for which the TGI with CCRF-CEM leukemia, in the experiment on HOP-92 NSCLC, in the experiment on KM12 colon, with MDA-MB-435, with MOLT-4 leukemia and with SK-MEL-2 melanoma was greater than 100 µM throughout. Also, the TGI with SK-OV-3 ovarian is greater than 100 µM; in the experiment with SR leukemia, 88.8 µM; in the experiment with U251 CNS, greater than 100 µM; in the experiment with UACC-62 melanoma, greater than 100 µM.
